SMILES strings stand for the structures. Where a name gives a salt, the structure may show the parent alone.

The test concerns the target T1, human recombinant 6His-Nterm SHP2 full-length (Thr2-Arg593) (Homo sapiens, UniProt Q06124).
T1 construct: 6His-Nterm SHP2 full-length (Thr2-Arg593, R&D system); 6His (N); purchased R&D system
T1 sequence (Q06124 2-593): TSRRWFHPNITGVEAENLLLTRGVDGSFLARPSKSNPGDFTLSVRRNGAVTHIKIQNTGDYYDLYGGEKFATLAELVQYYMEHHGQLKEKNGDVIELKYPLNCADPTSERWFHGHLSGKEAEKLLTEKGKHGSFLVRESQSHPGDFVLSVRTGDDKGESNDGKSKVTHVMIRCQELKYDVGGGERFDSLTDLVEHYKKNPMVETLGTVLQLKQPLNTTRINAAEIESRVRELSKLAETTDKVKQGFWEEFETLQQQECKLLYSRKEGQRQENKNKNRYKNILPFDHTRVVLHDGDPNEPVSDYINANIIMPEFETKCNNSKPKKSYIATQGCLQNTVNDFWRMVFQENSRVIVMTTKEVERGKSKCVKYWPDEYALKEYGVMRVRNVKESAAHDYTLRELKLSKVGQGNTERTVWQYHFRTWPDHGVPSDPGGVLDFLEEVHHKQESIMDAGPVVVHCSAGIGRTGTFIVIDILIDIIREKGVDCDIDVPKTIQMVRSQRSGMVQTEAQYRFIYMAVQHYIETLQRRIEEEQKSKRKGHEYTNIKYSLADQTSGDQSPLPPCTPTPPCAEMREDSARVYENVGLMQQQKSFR
Briefly: SHP2 Phosphatase Assay (DiFMUP fluorescence). The format is biochemical. The following applies: SHP2 0.2 nM pre-incubated with 100 nM bi-phosphorylated activating peptide; compound 1000-0.05 nM, 30 min pre-incubation; DiFMUP 20 µM, 45 min, room temperature; 10-concentration dose-response. The procedure, abridged: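 SHP2 (0.2 nM) preactivated ≥10 min with 100 nM bis-phosphorylated peptide, then 30 min with compound (10 concentrations, 1000–0.05 nM) at room temperature, pH 7.2 HEPES buffer with DTT. DiFMUP (20 µM, added solution) reacted 45 min, pervanadate-stopped; fluorescence 350/450 nm. IC50 by 4-parameter logistic fit.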
Usually IC50 stands for the concentration that gives 50% inhibition. For the molecule `Cc1nc(N2CCC3(CC2)Cc2ncccc2[C@H]3N)c2ccnn2c1Sc1cccnc1C(F)(F)F` [Compound 230, (5S)-1'-(6-methyl-7-((2-(trifluoromethyl)pyridin-3-yl)thio)pyrazolo[1,5-a]pyrazin-4-yl)-5,7-dihydrospiro[cyclopenta[b]pyridine-6,4'-piperidin]-5-amine], the IC50 worked out at 15 nM.
Regarding `COc1ccc(-c2c(C)nc(N3CCC4(CC3)Cc3ncccc3[C@H]4N)c3ccnn23)c(F)c1` [Compound 185, (5S)-1'-[7-(2-fluoro-4-methoxy-phenyl)-6-methyl-pyrazolo[1,5-a]pyrazin-4-yl]spiro[5,7-dihydrocyclopenta[b]pyridine-6,4'-piperidine]-5-amine], the IC50 was 7 nM.
The value for `Cc1nccc(-c2c(C)nc(N3CCC4(CC3)Cc3ncsc3[C@H]4N)c3ccnn23)c1Cl` [Compound 73, (6S)-1'-[7-(3-chloro-2-methyl-4-pyridyl)-6-methyl-pyrazolo[1,5-a]pyrazin-4-yl]spiro[4,6-dihydrocyclopenta[d]thiazole-5,4'-piperidine]-6-amine hydrochloride] was 5 nM; that for `Cc1nc(C)c(-c2c(C)nc(N3CCC4(CC3)Cc3ncccc3[C@H]4N)c3ccnn23)s1` [Compound 161, (5S)-1'-[7-(2,4-dimethylthiazol-5-yl)-6-methyl-pyrazolo[1,5-a]pyrazin-4-yl]spiro [5,7-dihydrocyclopenta[b]pyridine-6,4'-piperidine]-5-amine hydrochloride] was 29 nM; that for `Cc1nc(N2CCC3(CC2)Cc2c(ccnc2CO)[C@H]3N)c2ccnn2c1-c1ccccc1F` [Compound 35, [(5S)-5-amino-1'-[7-(2-fluorophenyl)-6-methyl-pyrazolo[1,5-a]pyrazin-4-yl]spiro[5,7-dihydrocyclopenta[c]pyridine-6,4'-piperidine]-1-yl]methanol] was 8 nM.
In the case of `Cc1nc(N2CCC3(CC2)Cc2ncccc2[C@H]3N)c2ccnn2c1-c1ccc(C#N)cc1F` [Compound 206, 3-fluoro-4-[6-methyl-4-[(5S)-5-aminospiro[5,7-dihydrocyclopenta[b]pyridine-6,4'-piperidine]-1'-yl]pyrazolo[1,5-a]pyrazin-7-yl]benzonitrile], the half-inhibitory concentration (IC50) is 12 nM.
With `Cc1ccccc1-c1c(C)nc(N2CCC3(CC2)Cc2ncccc2[C@H]3N)c2ccnn12` [Compound 52, (5S)-1'-[6-methyl-7-(o-tolyl)pyrazolo[1,5-a]pyrazin-4-yl]spiro[5,7-dihydrocyclopenta[b]pyridine-6,4'-piperidine]-5-amine], the IC50 was determined as 24 nM.
`Cc1nccc(-c2c(C)nc(N3CCC4(CC3)Cc3nc(O)sc3[C@H]4N)c3ccnn23)c1Cl` [Compound 218, (6S)-6-amino-1'-[7-(3-chloro-2-methyl-4-pyridyl)-6-methyl-pyrazolo[1,5-a]pyrazin-4-yl]spiro[4,6-dihydrocyclopenta[d]thiazole-5,4'-piperidine]-2-ol hydrochloride]: the IC50 was 179 nM.
In the case of `Cc1nc(N2CCC3(CC2)Cc2ncccc2[C@H]3N)c2ccnn2c1-c1ccncc1F` [Compound 71, (5S)-1'-[7-(3-fluoro-4-pyridyl)-6-methyl-pyrazolo[1,5-a]pyrazin-4-yl]spiro[5,7-dihydrocyclopenta[b]pyridine-6,4'-piperidine]-5-amine hydrochloride] it was 30 nM; in that of `COc1nc2c(s1)[C@@H](N)C1(CCN(c3nc(C)c(-c4cnn(C)c4C)n4nccc34)CC1)C2` [Compound 220, (6S)-1'-[7-(1,5-Dimethylpyrazol-4-yl)-6-methyl-pyrazolo[1,5-a]pyrazin-4-yl]-2-methoxy-spiro[4,6-dihydrocyclopenta[d]thiazole-5,4'-piperidine]-6-amine], 26 nM; in that of `Cc1nccc(-c2c(C)nc(N3CCC4(CC3)Cc3ncccc3[C@H]4N)c3c(F)cnn23)c1Cl` [Compound 144, (5S)-1'-[7-(3-chloro-2-methyl-4-pyridyl)-3-fluoro-6-methyl-pyrazolo[1,5-a]pyrazin-4-yl]spiro[5,7-dihydrocyclopenta[b]pyridine-6,4'-piperidine]-5-amine hydrochloride], 17 nM.
As to `Cc1nc(N2CCC3(CC2)Cc2c(F)cccc2[C@H]3N)c2ccnn2c1-c1cnc(C)n1C` [Compound 97, (1S)-1'-[7-(2,3-dimethylimidazol-4-yl)-6-methyl-pyrazolo[1,5-a]pyrazin-4-yl]-4-fluoro-spiro[indane-2,4'-piperidine]-1-amine hydrochloride], the IC50 came out at 42 nM.
For `Cc1nccc(-c2c(C)nc(N3CCC4(CC3)Cc3ccncc3[C@H]4N)c3ccnn23)c1F` [Compound 140, (7S)-1'-[7-(3-fluoro-2-methyl-4-pyridyl)-6-methyl-pyrazolo[1,5-a]pyrazin-4-yl]spiro[5,7-dihydrocyclopenta[c]pyridine-6,4'-piperidine]-7-amine], the 50% inhibitory concentration (IC50) worked out at 7 nM.
As for `Cc1nccc(Sc2c(C)nc(N3CCC4(CC3)Cc3ncccc3[C@H]4N)c3ccnn23)c1F` [Compound 229, (5S)-1'-[7-[(3-fluoro-2-methyl-4-pyridyl)sulfanyl]-6-methyl-pyrazolo[1,5-a]pyrazin-4-yl]spiro[5,7-dihydrocyclopenta[b]pyridine-6,4'-piperidine]-5-amine], the 50% inhibitory concentration (IC50) came to 14 nM.
For `COc1cc2c(cn1)[C@@H](N)C1(CCN(c3nc(C)c(-c4ccccc4F)n4nccc34)CC1)C2` [Compound 122, (7S)-1''-[7-(2-fluorophenyl)-6-methyl-pyrazolo[1,5-a]pyrazin-4-yl] -3-methoxy-spiro [5,7-dihydrocyclopenta[c]pyridine-6,4'-piperidine]-7-amine], the half-inhibitory concentration (IC50) was found to be 12 nM.
On to `Cc1nc(N2CCC3(CC2)Cc2ncccc2[C@H]3N)c2ccnn2c1-c1ccccc1Cl` [Compound 22, (5S)-1'-[7-(2-chlorophenyl)-6-methyl-pyrazolo[1,5-a]pyrazin-4-yl]spiro[5,7-dihydrocyclopenta[b]pyridine-6,4'-piperidine]-5-amine], for which the IC50 is 11 nM.
On to `COc1ccc(-c2c(C)nc(N3CCC4(CC3)Cc3ncccc3[C@H]4N)c3ccnn23)c(F)c1F` [Compound 175, (5 S)-1'-[7-(2,3-difluoro-4-methoxy-phenyl)-6-methyl-pyrazolo[1,5-a]pyrazin-4-yl]spiro[5,7-dihydrocyclopenta[b]pyridine-6,4'-piperidine]-5-amine], for which the IC50 came out at 4 nM.
Consider `Cc1nc(N2CCC3(CC2)Cc2ncccc2[C@H]3N)c2ccnn2c1-c1ccn(C)c(=O)c1F` [Compound 228, 4-[4-[(5S)-5-aminospiro[5,7-dihydrocyclopenta[b]pyridine-6,4'-piperidine]-1'-yl]-6-methyl-pyrazolo[1,5-a]pyrazin-7-yl]-3-fluoro-1-methyl-pyridin-2-one], for which the concentration for half-maximal inhibition (IC50) was determined as 86 nM.
With `Cc1cc(-c2c(C)nc(N3CCC4(CC3)Cc3ncccc3[C@H]4N)c3ccnn23)n(C)n1` [Compound 44, (5S)-1'-[7-(2,5-dimethylpyrazol-3-yl)-6-methyl-pyrazolo[1,5-a]pyrazin-4-yl]spiro[5,7-dihydrocyclopenta[b]pyridine-6,4'-piperidine]-5-amine], the IC50 came out at 15 nM.
For `N[C@@H]1c2cccnc2CC12CCN(c1ncc(-c3ccc(F)c4cc[nH]c34)n3nccc13)CC2` [Compound 89, (5S)-1'-[7-(4-fluoro-1H-indol-7-yl)pyrazolo[1,5-a]pyrazin-4-yl]spiro[5,7-dihydrocyclopenta[b]pyridine-6,4'-piperidine] -5-amine hydrochloride], the IC50 is 9 nM.

The values above are taken from patent publication EP4227307A1 (Genzyme Corporation, priority 2022, dated 2023).
